Source: patent US20240245787A1, “E3 LIGASE BINDERS AND USES THEREOF” (President and Fellows of Harvard College, priority 2021, published 2024)
Read-outs that look alike come from different tables or passages of the source. No end group written: not given here.

Legend:
FIG. 22C = assay: FIG. 22C
Description: Table printed on a drawing sheet, FIG. 22C
First reader's note: Per the description this is an in vitro permeability assay in Caco-2 cells; Boc-FcQ and Boc-FcN are Boc-protected dipeptide cyclic imides (cyclimids).

MM.1S cells = assay: Cell viability (MTT) assay; type: cell-based; conditions: Homo sapiens, MM1.S, 120 h, 5 d, read-out: IC50 (anti-proliferative effect)
Protocol: 2.0×10^4 MM.1S cells were seeded in each well of a 96-well plate containing 100 μL RPMI160 media supplemented with 10% FBS and 1× penicillin-streptomycin. The compound of interest was added to each well to a final concentration of 10 nM-100 μM from 100× stock solutions in 4% DMSO/PBS (1 μL). Samples were incubated at 37° C., 5% CO2 for 5 days. Each well was treated with 3-(4,5-Dimethylthiazol-2-yl)-2,5-diphenyltetrazolium (MTT, 4 mg/mL, 10 μL), and the treated plate was incubated at 37° C., 5% CO2 for 3 h. The formazan crystals were solubilized by the addition of 100 μL of 10% SDS, 0.01 M HCl per well, and the plate was allowed to incubate at 37° C. overnight. The absorbance at 570 nm was measured to quantify the formazan generated in each well. The blank was defined by wells containing media and MTT reagent without any cells. For each treatment well, the cell viability was calculated by subtracting the blank value and normalizing to the average absorbance of the vehicle control wells (cells treated with 4% DMSO/PBS).

IKZF1 [1] = assay: Global quantitative proteomics of MM.1S cells; type: cell-based, human (Homo sapiens); conditions: 10 μM, 10 h
Protocol: Global proteomics samples were prepared in biological triplicate for each condition. 1.5×10^6 HEK293T or MM.1S cells were seeded in 6-well plates and incubated at 37° C., 5% CO2 for 30 min. Small molecules of interested were then added, and cells were incubated at 37° C., 5% CO2 for the indicated time. […] After protein quantification by BCA protein assay, the lysates were diluted to 1 mg/mL with the lysis buffer. The diluted lysates (100 μL) were reduced by addition of dithiothreitol (20 mM) at 24° C. for 30 min then alkylated by addition of iodoacetamide (40 mM) and incubation in the dark at 24° C. for 30 min.
S-Trap buffer (90% methanol, 0.1 M TEAB, pH 7.1, 900 μL) was then added. Each sample was transferred to a S-Trap micro column. Using a vacuum manifold, the columns were washed with S-Trap buffer (3×150 μL). […] The digested peptides were eluted by sequential addition of 50 mM TEAB pH 8.0 (40 μL), ddH2O (40 μL) and 0.2% formic acid, 50% acetonitrile/water (35 μL), with each elution collected by centrifugation (4,000× g, 24° C., 1 min) in a clean Eppendorf tube. The eluted samples were concentrated to dryness in a vacufuge and resuspended in 45 or 80 μL ddH2O for 9 or 16 samples, respectively. For each resuspended sample, 5 μL was taken for labeling with TMT reagent (2 μL) at 24° C. for 1 h such that the combined total protein was 100 μg. […] The TMT-labeled samples were combined and dried in a vacufuge. The dried sample was resuspended in 300 μL 0.1% trifluoroacetic acid (TFA) and fractionated to 20 fractions using a Pierce high pH reversed-phase peptide fractionation kit. […] The first fraction (4% acetonitrile/0.1% TEA) was excluded from LC-MS/MS analysis. The other fractions were concentrated to dryness and each sample was resuspended in 20 μL of 0.1% formic acid prior to LC-MS/MS analysis. […]
Analysis was performed in Thermo Scientific Proteome Discoverer version 2.4.1.15. […] The TMT reporter ions were quantified using the Reporter Ions Quantifier node and normalized such that the summed peptide intensity per channel was equal. […]

[2] = molecular target: CRBN/DDB1 in the presence of BD2 domain of BRD4 (Homo sapiens, UniProt O60885+Q96SW2); assay: biochemical
CRBN/DDB1 in the presence of BD2 domain of BRD4, sequence (Q96SW2 whole entry, looked up, other chains not shown, the tested form may be a part): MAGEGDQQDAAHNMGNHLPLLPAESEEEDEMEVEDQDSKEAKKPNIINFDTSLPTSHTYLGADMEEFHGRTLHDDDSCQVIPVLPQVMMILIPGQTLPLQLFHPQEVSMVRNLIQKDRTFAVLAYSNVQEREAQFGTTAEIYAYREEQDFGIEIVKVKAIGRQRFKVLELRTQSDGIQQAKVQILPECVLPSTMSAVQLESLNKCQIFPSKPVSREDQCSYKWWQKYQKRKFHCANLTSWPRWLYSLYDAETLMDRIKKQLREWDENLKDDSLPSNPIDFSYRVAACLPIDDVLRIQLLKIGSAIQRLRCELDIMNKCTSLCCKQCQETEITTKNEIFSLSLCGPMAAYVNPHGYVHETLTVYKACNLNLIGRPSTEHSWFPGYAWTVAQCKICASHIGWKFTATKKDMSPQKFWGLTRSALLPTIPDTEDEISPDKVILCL

BRD4 with FLAG-CRBN [3] = molecular target: T1, BRD4 with FLAG-CRBN (Homo sapiens, UniProt O60885+Q96SW2); assay: In vitro FLAG-tag co-immunoprecipitation in HEK-CRBN lysates; type: binding; conditions: 1 μM, 2 h
Protocol: For in vitro FLAG-tag co-immunoprecipitation, 5.0×10^6 HEK-CRBN cells were collected by centrifugation, lysed in 1× protease/phosphatase inhibitor/1× non-denaturing lysis buffer (400 μL), and cleared by centrifugation (21,000×g, 4° C., 10 min). The soluble portion of the lysate was collected and 200 μL of lysate was incubated with compound of interest at 4° C. for 2 h. […] The magnetic beads were washed with 1× non-denaturing lysis buffer (5×500 μL). The enriched proteins were eluted by the addition of 40 μL of 2× SDS-PAGE loading buffer and heated at 95° C. for 5 min prior to Western blot analysis.

BRD4 with FLAG-CRBN [4] = molecular target: T1, BRD4 with FLAG-CRBN; assay: In vivo FLAG-tag co-immunoprecipitation in HEK-CRBN cells; type: cell-based; conditions: 25 μM, 2 h, 1 μM MLN4924
Protocol: For in vivo FLAG-tag co-immunoprecipitation, 5.0×10^6 HEK-CRBN cells were seeded and incubated at 37° C., 5% CO2 for 30 min, and then were treated with 1 μM MLN4924 for 1 h. […] The cells were collected and lysed in 1× protease/phosphatase inhibitor/1× non-denaturing lysis buffer (500 μL) and clarified by centrifugation (21,000×g, 4° C., 10 min). The soluble portion of the lysate was collected and 200 μL of lysate was incubated with of protein G magnetic beads for 20 min (20 μL) to minimize the non-specific binding. […] The magnetic beads were washed with 1× non-denaturing lysis buffer (5×500 μL). Then, the enriched proteins were eluted by addition of 40 μL of 2× SDS-PAGE loading buffer and heated at 95 °C for 5 min prior to Western blot analysis.

[5] = tested on: GST-BRD4 and His-CRBN/DDB1; assay: AlphaScreen for ternary complex formation; type: binding; conditions: recombinant GST-BRD4 and His-CRBN/DDB1
Protocol: AlphaScreen buffer (3× stock solution: 150 mM HEPES pH 7.4, 600 mM NaCl, 0.3% w/v BSA, 3 mM TCEP) was prepared fresh for each experiment. A 3× stock solution of each compound (60 μM, 3% DMSO final/1× AlphaScreen buffer) and a series of 2-fold serial dilutions, in 3% DMSO/1× AlphaScreen buffer, were prepared fresh for each experiment. A solution of 750 nM His6-CRBN/DDB1, 375 nM GST-BRD4/1× AlphaScreen buffer (5 μL) was added to each well of a 384-well Optiplate. Then, compound (5 μL) was added, with each concentration assayed in triplicate. As a positive control, 10 μL 100 nM GST-His6 was added to three wells. The plate was sealed with TopSeal A, centrifuged (200× g, 25° C., 1 min), and incubated at 25° C. for 1 h. Under low light, the seal was removed and 5 μL of 60 μg/mL AlphaScreen Glutathione Donor beads, 60 μg/mL AlphaLISA Nickel Chelate […] beads/1× AlphaScreen buffer was added to each well. The plate was sealed with TopSeal A, centrifuged (200× g, 25° C., 1 min), and incubated at 25° C. for 1 h. The seal was removed and the plate was analyzed. Prior to analysis, the plate reader was calibrated with a plate containing 15 μL of 20 μg/mL Omnibeads/1× AlphaScreen buffer in the corner wells. Analysis was performed in Graphpad Prism, using the vehicle-treated wells as the baseline, fitting the signal from each compound to a Gaussian curve, and calculating the area under the curve (AUC).

[6] = molecular target: CRBN/DDB1 in the presence of BD1 domain of BRD4 (Homo sapiens, UniProt O60885+Q96SW2); assay: biochemical
BRD4 = BRD4 (Homo sapiens, UniProt O60885)
IKZF1 [7] = assay: Western blot of IKZF1 levels in MM.1S cells; type: cell-based; conditions: 10 μM
Protocol: As needed, a BCA assay was performed to determine the protein concentration of lysates and the concentration was adjusted using lysis buffer. 5× SDS-PAGE loading buffer (5% (v/v) β-mercaptoethanol, 0.02% (w/v) bromophenol blue, 30% (v/v) glycerol, 10% (w/v) SDS/250 mM Tris pH 6.8) was added to the protein samples to a final concentration of 1× and the samples were heated at 95° C. for 5 min. […] Gels were transferred to membranes using the Invitrogen iBlot 2 dry blotting system and iBlot 2 nitrocellulose transfer stacks, using program PO (1 min at 20 V, 4 min at 23 V, 2 min at 25 V) for most proteins and 8 min at 25 V for high molecular weight proteins. Membranes were stained with Ponceau S solution to visualize transfer and protein loading. […] Membranes were washed (3×5 min) with TBST and incubated with secondary antibodies at 24° C. for 1 h. Membranes were washed (3×5 min) with TBST and the results were obtained by chemiluminescence and/or IR imaging using Azure 600 or c600.

CRL4^CRBN complex = CRL4^CRBN complex (Homo sapiens, UniProt Q96SW2); assay: In vitro ubiquitylation of C-terminally tagged proteins; type: biochemical; conditions: CRL4^CRBN complex isolated from HEK-CRBN cells, 30° C., 90 min
Protocol: 5.0×10^6 HEK-CRBN cells were collected per pellet, flash frozen with liquid nitrogen, and stored at −80° C. until use. Approximately 1 pellet per 1.5 samples was thawed on ice, and each pellet was resuspended in 1× protease inhibitor cocktail/Pierce IP lysis buffer (250 μL). Lysates were incubated on ice for 10 min, then were clarified by centrifugation (21,000×g, 4° C., 10 min). The soluble portions of the lysates were collected, with 1 mL lysate per tube, and 150 μL of TBS-washed anti-FLAG M2 beads were added. Samples were incubated at 4° C. on a roller for 1 h. Using a magnetic tube rack, the beads were collected and washed 3× with 1 mL TBS. Each sample was then eluted with by adding 100 μL of 100 ng/μL 3× FLAG peptide/TBS and incubating at 4° C. on a roller for 1 h. The eluent was collected. […] Ubiquitylation mastermixes were prepared at 2× with and without E1 and E2 enzymes. Final concentrations (1×) of the mastermix components were 0.2 μM UBE1, 2 μM UbcH5a, 1 mM UbcH5c, 400 μg/mL KO ubiquitin, 1 μM ubiquitin aldehyde, 1× Mg-ATP, 1× E3 ligase buffer, 10 μM MG132, 100 nM MG101. […] Reactions were incubated at 30° C. for 90 min then were stopped by the addition of 6.25 μL of 5× SDS-PAGE loading buffer. Samples were heated at 95° C. for 5 min prior to analysis by SDS-PAGE and Western blotting.

[8] = read-out: KD [ternary] (nM) | BD2
[9] = read-out: KD [ternary] (nM) | BD1

Compound: CC(C)(C)OC(=O)NC(Cc1ccccc1)C(=O)NC1CCC(=O)NC1=O (centres unmarked) [Boc-FcQ]
- Papp (B-A) (10^-6, cm/s) (FIG. 22C): 18.00 10^-6, cm/s
- Recovery (%)BL-AP (FIG. 22C): 91.46%
- IC50 (MM.1S cells): > 100000 nM
- additional substrates degraded (global proteomics) (IKZF1 [1]): no additional substrates were degraded
- degradation of IKZF1 (global proteomics) (IKZF1 [1]): not susceptible to degradation

Compound: Cc1sc2c(c1C)C(c1ccc(Cl)cc1)=N[C@@H](CC(=O)NCCCCCCCCC(=O)N[C@@H](C)C(=O)N[C@H]1CCC(=O)NC1=O)c1nnc(C)n1-2 [JQ1-AcQ]
- Kd [2, 8]: 76 nM

Compound: Cc1sc2c(c1C)C(c1ccc(Cl)cc1)=N[C@@H](CC(=O)NCCCCCCCCC(=O)N[C@@H](CC(=O)O)C(=O)N[C@H]1CCC(=O)NC1=O)c1nnc(C)n1-2 [JQ1-DcQ]
- co-immunoprecipitation of BRD4 with FLAG-CRBN in lysates (BRD4 with FLAG-CRBN [3]): equivalent co-immunoprecipitation of BRD4 with FLAG-CRBN

Compound: Cc1sc2c(c1C)C(c1ccc(Cl)cc1)=N[C@@H](CC(=O)NCCCCCCCCC(=O)N[C@@H](CCC(=O)O)C(=O)N[C@H]1CCC(=O)NC1=O)c1nnc(C)n1-2 [JQ1-EcQ]
- co-immunoprecipitation of BRD4 with FLAG-CRBN in lysates (BRD4 with FLAG-CRBN [3]): equivalent co-immunoprecipitation of BRD4 with FLAG-CRBN

Compound: Cc1sc2c(c1C)C(c1ccc(Cl)cc1)=N[C@@H](CC(=O)NCCCCCCCCC(=O)N[C@@H](Cc1ccccc1)C(=O)N[C@H]1CC(=O)NC1=O)c1nnc(C)n1-2 [JQ1-FcN]
- co-immunoprecipitation of BRD4 by FLAG-CRBN in cells (BRD4 with FLAG-CRBN [4]): readily co-immunoprecipitated
- ternary complex formation (AlphaScreen signal / relative area under the curve normalized to dBET6) [5]: stronger ternary complex than dBET6

Compound: Cc1sc2c(c1C)C(c1ccc(Cl)cc1)=N[C@@H](CC(=O)NCCCCCCCCC(=O)N[C@@H](Cc1ccccc1)C(=O)N[C@H]1CCC(=O)NC1=O)c1nnc(C)n1-2 [JQ1-FcQ]
- co-immunoprecipitation of BRD4 by FLAG-CRBN in cells (BRD4 with FLAG-CRBN [4]): readily co-immunoprecipitated
- ternary complex formation (AlphaScreen signal / relative area under the curve normalized to dBET6) [5]: stronger ternary complex than dBET6

Compound: Cc1sc2c(c1C)C(c1ccc(Cl)cc1)=N[C@@H](CC(=O)NCCCCCCCCC(=O)N1CCC[C@H]1C(=O)N[C@H]1CCC(=O)NC1=O)c1nnc(C)n1-2 [JQ1-PcQ]
- Kd [2, 8]: 335 nM
- Kd [6, 9]: 381 nM

Compound: Cc1sc2c(c1C)C(c1ccc(Cl)cc1)=N[C@@H](CC(=O)NCCCCCCCCC(=O)N[C@@H](Cc1ccc(O)cc1)C(=O)N[C@H]1CCC(=O)NC1=O)c1nnc(C)n1-2 [JQ1-YcQ]
- Kd [2, 8]: 277 nM
- Kd [6, 9]: 5 nM

Compound: Cc1sc2c(c1C)C(c1ccc(Cl)cc1)=N[C@@H](CC(=O)NCCCCCCCCC(=O)N[C@H]1CC(=O)NC1=O)c1nnc(C)n1-2 [JQ1-cN]
- Kd [2]: 390 nM
- Kd [6]: 538 nM

Compound: Cc1sc2c(c1C)C(c1ccc(Cl)cc1)=N[C@@H](CC(=O)NCCCCCCCCC(=O)N[C@H]1CCC(=O)NC1=O)c1nnc(C)n1-2 [JQ1-cQ]
- Kd [2]: 267 nM
- Kd [6]: 245 nM
- degradation of BRD4 (functional degrader or not) (BRD4): inactive
- ternary complex formation (AlphaScreen signal / relative area under the curve normalized to dBET6) [5]: ternary complex formation equivalent to the active JQ1-GcQ

Compound: Nc1cccc2c1CN(C1CCC(=O)NC1=O)C2=O (centres unmarked) [lenalidomide, Lenalidomide, reference compound]
- IC50 (MM.1S cells): 31600 nM

Compound: Nc1cccc2c1CN(C1CCC(=O)NC1=O)C2=O (centres unmarked) [lenalidomide, Lenalidomide]
- Papp (A-B) (10^-6, cm/s) (FIG. 22C): 1.22 10^-6, cm/s
- Papp (B-A) (10^-6, cm/s) (FIG. 22C): 4.41 10^-6, cm/s

Compound: Nc1cccc2c1C(=O)N(C1CCC(=O)NC1=O)C2=O (centres unmarked) [pomalidomide, Pomalidomide, reference compound]
- degradation of IKZF1 (Western blot) (IKZF1 [7]): degraded
- degradation of IKZF1 (global proteomics) (IKZF1 [1]): selective degradation of the substrate IKZF1

Compound: GFP-FN: "GFPs tagged with uncyclized glutamine and asparagine, GFP-FQ and GFP-FN" (TGGSLPETFN; not fully specified (N-terminus))
- in vitro ubiquitylation of tagged GFP by CRL4^CRBN complex (CRL4^CRBN complex): no modification

Compound: GFP-FQ: "GFPs tagged with uncyclized glutamine and asparagine, GFP-FQ and GFP-FN" (TGGSLPETFQ; not fully specified (N-terminus))
- in vitro ubiquitylation of tagged GFP by CRL4^CRBN complex (CRL4^CRBN complex): no modification
